BigSolDB 2.1

Conditions: in water

O=[N+]([O-])c1ccc(/C=C/c2ccc([N+](=O)[O-])cc2S(=O)(=O)[O-])c(S(=O)(=O)[O-])c1.[Na+].[Na+]
Conditions | solubility (mole fraction)
284.85 K | 0.0013
290.35 K | 0.0017
293.05 K | 0.00197
296.45 K | 0.00228
301.45 K | 0.00302
304.55 K | 0.00353
307.75 K | 0.00394
309.85 K | 0.00434
312.05 K | 0.00498
316.25 K | 0.00595
319.25 K | 0.00674
321.95 K | 0.00756
